We go through six molecules from article PMC10967822, “Antimicrobial Indole-3-Carboxamido-Polyamine Conjugates Target Bacterial Membranes and Are Antibiotic Potentiators” (Biomolecules, 2024).

In brackets after ≈: the same amount, converted by molar mass. Where only a bound is given, the exact number is not on record here.

The subject of one data set is A. baumannii ATCC 19606. Nature of the data set: MIC, broth microdilution (CO-ADD), A. baumannii. The format is cell-based, Acinetobacter baumannii. The following applies: Acinetobacter baumannii, ATCC19606, top dose 32 µg/mL. A general note: Dilution methods test growth across graded concentrations, often in twofold steps.
The next data set concerns MRSA ATCC 43300. Nature of the data set: MIC, broth microdilution (CO-ADD), MRSA. The conditions noted are these: Staphylococcus aureus; MRSA ATCC 43300; top dose 32 µg/mL; read-out: MIC MRSA. The format is cell-based, methicillin-resistant S. aureus.
Data set [1] has as its system E. coli ATCC 25922. Nature of the data set: MIC, broth dilution, E. coli. The format is cell-based, Escherichia coli. The conditions noted are these: Escherichia coli, ATCC25922; E. coli ATCC 25922, 18 h.
Data set [2] deals with C. neoformans ATCC 208821. As to the kind of experiment: Antifungal MIC (CO-ADD), C. neoformans. In kind it is cell-based. The conditions noted are these: Cryptococcus neoformans, ATCC208821, top dose 32 µg/mL. In a few lines:
(§1)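 MIC for C. neoformans determined by OD570–600 following a further 3 h with resazurin (0.006% final), whereas C. albicans was read directly at OD530. Both grown static in YNB broth at 2.5 × 10^3 CFU/mL final inoculum, 35 °C for 36 h, from colonies cultured on YPD agar 3 days at 30 °C.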

Data set [3] can be described thus: Cytotoxicity assay (resazurin). In kind it is cell-based. The conditions noted are these: human, HEK293 cells, mean n = 2.
Data set [4] relates to P. aeruginosa ATCC 27853. As to the kind of experiment: Doxycycline potentiation against P. aeruginosa. The format is cell-based, Pseudomonas aeruginosa. The following applies: doxycycline at 2 µg/mL (4.5 µM); for Dox/Pa fold-change (intrinsic MIC / combination MIC): P. aeruginosa ATCC 27853; for Dox/Pa: concentration required to restore doxycycline activity (combination MIC): P. aeruginosa ATCC 27853, mean n = 3. An excerpt: (§2) These measurements were independently repeated in triplicate.

In a further data set the test system is S. aureus ATCC 25923. Nature of the data set: MIC, broth dilution, S. aureus. In kind it is cell-based, Staphylococcus aureus. The following applies: Staphylococcus aureus, ATCC25923; S. aureus ATCC 25923, 18 h; read-out: MIC Sa.
A further data set concerns C. albicans ATCC 90028. Nature of the data set: Antifungal MIC (CO-ADD), C. albicans. In kind it is cell-based. The following applies: Candida albicans, ATCC90028, top dose 32 µg/mL. The essentials:
as §1

The next data set deals with human red blood cells. Nature of the data set: Hemolytic assay. The following applies: 10% hemolytic activity, mean n = 2. The format is cell-based. In a few lines:
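Compounds were applied to saline-washed human red blood cells at 0.5 × 10^8 cells/mL, 37 °C, 1 h. Lysis was measured by supernatant absorbance at 405 nm, and concentrations giving 10% and 50% haemolysis were obtained by variable-slope curve fitting.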

Data set [5] concerns K. pneumoniae ATCC 700603. As to the kind of experiment: MIC, broth microdilution (CO-ADD), K. pneumoniae. The following applies: top dose 32 µg/mL.
The subject of data set [6] is E. coli ATCC 25922. As to the kind of experiment: Erythromycin potentiation against E. coli. The following applies: erythromycin at 2 µg/mL (2.7 µM); for Erythro/Ec fold-change (intrinsic MIC / combination MIC): E. coli; for Erythro/Ec: concentration required to restore erythromycin activity (combination MIC): mean n = 3. The format is cell-based, Escherichia coli.
Text: as §2

The test system of data set [7] is P. aeruginosa ATCC 27853. Nature of the data set: MIC, broth dilution, P. aeruginosa. The format is cell-based, Pseudomonas aeruginosa. The conditions noted are these: Pseudomonas aeruginosa, ATCC27853; P. aeruginosa ATCC 27853, 18 h; read-out: MIC Pa.

With `COc1ccc2[nH]cc(C(=O)NCCCNCCCCCCCCCCCCNCCCNC(=O)c3c[nH]c4ccc(OC)cc34)c2c1.O=C(O)C(F)(F)F.O=C(O)C(F)(F)F` [Compound 14f], the MIC (in general, the least concentration at which growth counts as inhibited) against A. baumannii ATCC 19606 was more than 36 µM; with MRSA ATCC 43300 it was not above 0.28 µM; in the data set with E. coli ATCC 25922 [1], 14.1 µM; in data set [2], not above 0.28 µM; in the data set on S. aureus ATCC 25923, 3.52 µM; in the data set with C. albicans ATCC 90028 it was not above 0.28 µM. Further, the MIC in the data set with P. aeruginosa ATCC 27853 [7] came to 112 µM. Further, in [3], the IC50 – broadly, the point on the concentration scale where inhibition reaches its midpoint – at 20 h was more than 36 µM. In addition, the “Dox/Pa fold-change (intrinsic MIC / combination MIC)” value with P. aeruginosa ATCC 27853 [4] was determined as 2 fold. Moreover, in the data set on P. aeruginosa ATCC 27853 [4], the “Dox/Pa: concentration required to restore doxycycline activity (combination MIC)” value (“Dox/Pa: concentration required” below) came out at 56.2 µM. Also, the “Hemolysis HC10” value in the data set with human red blood cells is reported as more than 36 µM. Besides, the “MIC Kp” value in [5] is recorded as more than 36 µM. Besides, the “Erythro/Ec fold-change (intrinsic MIC / combination MIC)” value with E. coli ATCC 25922 [6] was 1 fold. In the data set on E. coli ATCC 25922 [6], the “Erythro/Ec: concentration required to restore erythromycin activity (combination MIC)” value (“Erythro/Ec: concentration required” for short) was found to be 14.1 µM.
In the case of `O=C(NCCCNCCCCCCCCNCCCNC(=O)c1c[nH]c2c(F)cccc12)c1c[nH]c2c(F)cccc12` [Compound 16d], the MIC in the data set with A. baumannii ATCC 19606 is more than 40 µM; in the data set with MRSA ATCC 43300, 9.89 µM (≈ 5.74 µg/mL); in the data set with E. coli ATCC 25922 [1], 247 µM (≈ 143 µg/mL); in data set [2], not above 0.31 µM; in the data set with S. aureus ATCC 25923 it was 247 µM (≈ 143 µg/mL); in the data set on C. albicans ATCC 90028, more than 40 µM. The MIC in the data set on P. aeruginosa ATCC 27853 [7] was found to be 247 µM (≈ 143 µg/mL). The same molecule registered an IC50 at 20 h in [3] of more than 40 µM. In the data set on P. aeruginosa ATCC 27853 [4], the “Dox/Pa fold-change (intrinsic MIC / combination MIC)” value is recorded as more than 8 fold. The “Dox/Pa: concentration required” value in the data set on P. aeruginosa ATCC 27853 [4] is 30.9 µM. For the same molecule, the “Hemolysis HC10” value with human red blood cells was more than 40 µM. Further, the “MIC Kp” value in data set [5] is on record as more than 40 µM. Besides, the “Erythro/Ec fold-change (intrinsic MIC / combination MIC)” value in the data set with E. coli ATCC 25922 [6] was 1 fold. For the same molecule, the “Erythro/Ec: concentration required” value in the data set on E. coli ATCC 25922 [6] worked out at 247 µM.
With `O=C(NCCCNCCCCCCCCCCNCCCNC(=O)c1c[nH]c2c(F)cccc12)c1c[nH]c2c(F)cccc12` [Compound 16e], the MIC with A. baumannii ATCC 19606 is more than 38 µM; in the data set on MRSA ATCC 43300, not above 0.3 µM; against E. coli ATCC 25922 [1], 239 µM (≈ 145 µg/mL); in data set [2] it was not above 0.3 µM; with S. aureus ATCC 25923, 239 µM (≈ 145 µg/mL); against C. albicans ATCC 90028 it was not above 0.3 µM. The minimum inhibitory concentration (MIC) in the data set on P. aeruginosa ATCC 27853 [7] was 239 µM (≈ 145 µg/mL). The molecule also gave an IC50 at 20 h in data set [3] of more than 38 µM. Moreover, in the data set with P. aeruginosa ATCC 27853 [4], the “Dox/Pa fold-change (intrinsic MIC / combination MIC)” value is 8 fold. The “Dox/Pa: concentration required” value in the data set on P. aeruginosa ATCC 27853 [4] was determined as 29.9 µM. For the same molecule, the “Hemolysis HC10” value with human red blood cells was more than 38 µM. In data set [5], the “MIC Kp” value is more than 38 µM. The “Erythro/Ec fold-change (intrinsic MIC / combination MIC)” value in the data set with E. coli ATCC 25922 [6] was 1 fold. In the data set on E. coli ATCC 25922 [6], the “Erythro/Ec: concentration required” value is on record as 239 µM.
Turning to `O=C(NCCCNCCCCCCCCCCNCCCNC(=O)c1c[nH]c2ccc(Br)cc12)c1c[nH]c2ccc(Br)cc12` [Compound 13e], the MIC in the data set with A. baumannii ATCC 19606 is 16.7 µM (≈ 12.2 µg/mL); in the data set with MRSA ATCC 43300 it was not above 0.26 µM; with E. coli ATCC 25922 [1] it was 52.2 µM (≈ 38.1 µg/mL); in data set [2] it was not above 0.26 µM; with S. aureus ATCC 25923 it was 3.26 µM (≈ 2.38 µg/mL); in the data set on C. albicans ATCC 90028 it was 4.17 µM (≈ 3.05 µg/mL). For the same molecule, the MIC with P. aeruginosa ATCC 27853 [7] is 104 µM (≈ 76 µg/mL). Further, the IC50 at 20 h in data set [3] is more than 33 µM. Moreover, the “Dox/Pa fold-change (intrinsic MIC / combination MIC)” value with P. aeruginosa ATCC 27853 [4] is 4 fold. The “Dox/Pa: concentration required” value in the data set with P. aeruginosa ATCC 27853 [4] is given as 26.1 µM. Besides, the “Hemolysis HC10” value with human red blood cells is listed as more than 33 µM. Besides, the “MIC Kp” value in data set [5] was more than 34 µM. The “Erythro/Ec fold-change (intrinsic MIC / combination MIC)” value with E. coli ATCC 25922 [6] came to 8 fold. Also, in the data set with E. coli ATCC 25922 [6], the “Erythro/Ec: concentration required” value was 6.52 µM.
Take `O=C(NCCCNCCCCCCCCCCNCCCNC(=O)c1c[nH]c2ccccc12)c1c[nH]c2ccccc12.O=C(O)C(F)(F)F.O=C(O)C(F)(F)F` [Compound 12e]: the MIC with A. baumannii ATCC 19606 was more than 40 µM; with MRSA ATCC 43300, not above 0.31 µM; with E. coli ATCC 25922 [1], 125 µM; in data set [2], not above 0.31 µM; in the data set with S. aureus ATCC 25923, 31.2 µM; in the data set on C. albicans ATCC 90028, more than 40 µM. In addition, in the data set with P. aeruginosa ATCC 27853 [7], the MIC was more than 250 µM. Further, the IC50 at 20 h in data set [3] is more than 40 µM. Besides, the “Dox/Pa fold-change (intrinsic MIC / combination MIC)” value with P. aeruginosa ATCC 27853 [4] was more than 4 fold. For the same molecule, the “Dox/Pa: concentration required” value in the data set with P. aeruginosa ATCC 27853 [4] was 62.4 µM. For the same molecule, the “Hemolysis HC10” value in the data set with human red blood cells is on record as more than 40 µM. Besides, the “MIC Kp” value in data set [5] is more than 40 µM. Moreover, the “Erythro/Ec fold-change (intrinsic MIC / combination MIC)” value in the data set on E. coli ATCC 25922 [6] is on record as 2 fold. Besides, the “Erythro/Ec: concentration required” value in the data set on E. coli ATCC 25922 [6] was determined as 62.4 µM.
As to `O=C(NCCCNCCCCCCCNCCCNC(=O)c1c[nH]c2c(F)cccc12)c1c[nH]c2c(F)cccc12` [Compound 16c], the MIC was more than 40 µM against A. baumannii ATCC 19606; not above 0.31 µM in the data set with MRSA ATCC 43300; more than 251 µM against E. coli ATCC 25922 [1]; not above 0.31 µM in data set [2]; more than 251 µM in the data set with S. aureus ATCC 25923; more than 40 µM against C. albicans ATCC 90028. Also, the MIC with P. aeruginosa ATCC 27853 [7] turned out to be 251 µM (≈ 142 µg/mL). Further, in data set [3], the IC50 at 20 h was more than 40 µM. Besides, the “Dox/Pa fold-change (intrinsic MIC / combination MIC)” value in the data set with P. aeruginosa ATCC 27853 [4] is listed as more than 4 fold. In addition, the “Dox/Pa: concentration required” value in the data set with P. aeruginosa ATCC 27853 [4] came to 62.9 µM. Moreover, in the data set on human red blood cells, the “Hemolysis HC10” value is reported as more than 40 µM. For the same molecule, in data set [5], the “MIC Kp” value is given as more than 40 µM. Also, in the data set on E. coli ATCC 25922 [6], the “Erythro/Ec fold-change (intrinsic MIC / combination MIC)” value is recorded as 1 fold. Moreover, the “Erythro/Ec: concentration required” value with E. coli ATCC 25922 [6] was determined as 252 µM.
